“Also recorded” adds a separate entry of the source. Peptide text beside a SMILES is read from it.

Series [1] is described as follows: Time to exhaustion test on cycle ergometer at 75% VO2 max after dehydration and rehydration. The class given is in vivo, human. The text has this:
(§1) On four of the five subsequent visits to the HPL, subjects dehydrated to 2.5% of their baseline body mass. On the occasion that a dehydration protocol was not employed, subjects reported to the HPL in a euhydrated state to provide a baseline blood draw and perform the exercise protocol. This trial (T1) provided baseline performance data for how subjects performed in optimal conditions without hydration stress. All performance comparisons were made to this trial. In one trial (T2) subjects achieved their goal weight (−2.5% of baseline body weight) and rested in a recumbent position for 45 minutes before commencing the exercise session. In the subsequent three trials subjects reached their goal weight (−2.5% of baseline body mass) and then rehydrated to −1.5% of their baseline body mass by drinking either water (T3) or two different doses (T4 and T5) of the alanyl-glutamine (ALA-GLU) supplement (0.05 g·kg^−1 and 0.2 g·kg^−1, respectively). During the hydration trials (T3-T5), the exercise protocol began 45 minutes following reaching their goal weight. During this time frame, subjects were rehydrated. The order of the trials was randomly determined.
On the night before testing (5 p.m.), subjects reported to the HPL for weighing and urine specific gravity measures to ascertain that subjects were euhydrated. Subjects were then instructed to not consume any food or water until the next day when they reported back to the HPL (7 a.m.). […] On the morning of trials T2-T5, subjects reporting to the HPL were weighed and began the active dehydration protocol to achieve the desired weight loss. The active dehydration protocol required subjects to walk on a motorized treadmill at 3.4 mi·h^−1 and at a 2% incline. Subjects were fully clothed in a training suit (long cotton heavy weight fleece sweat pants and top). Nude body weight, heart rate, and rating of perceived exertion were monitored at 20-minute increments. […] At the end of the dehydration period, a urine specimen and blood samples were obtained. Dehydration was verified by measuring urine specific gravity and both urine and plasma osmolality. The time necessary to reach the goal body mass (−2.5% weight loss) was 62.5±44.2 min.
(§2) Subjects consumed the supplement or placebo (water) following the dehydration protocol as part of their rehydration to −1.5% of their baseline body mass. The L-alanyl-L-glutamine supplement (0.2 g·kg^−1 or 0.05 g·kg^−1) (Kyowa Hakko USA, New York, N.Y.) was mixed with water and was indistinguishable in appearance and taste from the placebo.
After dehydration and rehydration (except during trial T2), subjects began the exercise protocol. Subjects exercised at a workload that elicited 75% of their VO2 max on a cycle ergometer. Subjects were encouraged to give their best effort during each trial, and were verbally encouraged throughout each exercise trial. Oxygen consumption, minute ventilation, respiratory exchange ratio, and heart rate were measured continuously. Heart rate and blood pressure were recorded before and at the conclusion of exercise. Time to exhaustion was determined as the time that the subject could no longer maintain the workload and/or reach volitional exhaustion.

Series [2] in a line: Plasma glutamine concentration during hydration stress and endurance exercise. The class given is in vivo, human.
Text: as §1, §2
A baseline (BL) blood draw occurred during T1. No other blood was drawn during that trial. The BL blood sample was drawn following a 15-min equilibration period prior to exercise. […]
Hemoglobin was analyzed in triplicate from whole blood using the cyanmethemoglobin method (Sigma Diagnostics, St. Louis, Mo.). Hematocrit was analyzed in triplicate from whole blood via microcentrifugation (IEC micro-MB centrifuge, Needham, Mass.) and microcapillary technique. Plasma volume shifts following the workout were calculated using the formula of Dill & Costill (1974). […]

Take `C[C@H](N)C(=O)N[C@@H](CCC(N)=O)C(=O)O` [alanyl-glutamine, L-alanyl-L-glutamine] (H-Ala-Gln-OH): the “Δ performance: time to exhaustion (difference to T1)” value in series [1] (T4, 0.05 g·kg^−1, compared to T2 (dehydrated, no rehydration)) is given as “significantly greater times to exhaustion”; in series [1] (T5, 0.2 g·kg^−1, compared to T2 (dehydrated, no rehydration)) it was “significantly greater times to exhaustion”. In addition, the “trend of inhibiting the decrease in duration of exercise endurance” value in series [1] (T4, 0.05 g·kg^−1, compared to T3 (water only)) is reported as “even more pronounced”; in series [1] (T5, 0.2 g·kg^−1, compared to T3 (water only)), “even more pronounced”. For the same compound, the effect on endurance entry in series [1] (overall conclusion, independent of increases in plasma glutamine concentration) was “endurance enhancing effect”. Besides, the Plasma glutamine concentration entry in series [2] (T4, 0.05 g/kg, compared to T3 (water only)) is given as “No differences”; in series [2] (T5, 0.2 g·kg^−1, at RHY and IP, compared to T2-T4), “significantly higher; also recorded: significantly increased”. Also, the “AUC of plasma glutamine concentration” value in series [2] (T5, 0.2 g·kg^−1, compared to the other experimental trials) is recorded as “significantly higher”.
